Source: PubChem BioAssay AID2060888 (Molecular Pharmacology Branch, DTP, NCI, 2025)
Blank lines part the entries; values can stand above or below the compound they belong to.

Test system: 695427-040-R-J1-PDC complex spheroid viability
Test: Anticancer human tumor 695427-040-R-J1-PDC patient-derived colon adenocarcinoma cell line growth inhibition [RAS]
Settings: for viability, T/C: stronger effect = lower value
Outline: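 Multi-cell-type spheroids: tumor cells plus HUVEC endothelial cells and mesenchymal stem cells. RAS-pathway inhibitors were combined with targeted agents, each dosed in half-log steps down from clinical Cmax, or from 10 microM when Cmax was unknown.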

[1] = curve of first compound, second compound 0.000949 µM
[2] = curve of first compound, second compound 0.003 µM
[3] = curve of first compound, second compound 0.00949 µM
[4] = curve of first compound, second compound 0.03 µM
[5] = curve of first compound, second compound 0.0949 µM
[6] = curve of first compound, second compound 0.3 µM
[7] = second compound 0.000949 µM, first compound 0.0316 µM
[8] = second compound 0.000949 µM, first compound 0.1 µM
[9] = second compound 0.000949 µM, first compound 0.316 µM
[10] = second compound 0.000949 µM, first compound 1 µM
[11] = second compound 0.003 µM, first compound 0.0316 µM
[12] = second compound 0.003 µM, first compound 0.1 µM
[13] = second compound 0.003 µM, first compound 0.316 µM
[14] = second compound 0.003 µM, first compound 1 µM
[15] = second compound 0.00949 µM, first compound 0.0316 µM
[16] = second compound 0.00949 µM, first compound 0.1 µM
[17] = second compound 0.00949 µM, first compound 0.316 µM
[18] = second compound 0.00949 µM, first compound 1 µM
[19] = second compound 0.03 µM, first compound 0.0316 µM
[20] = second compound 0.03 µM, first compound 0.1 µM
[21] = second compound 0.03 µM, first compound 0.316 µM
[22] = second compound 0.03 µM, first compound 1 µM
[23] = second compound 0.0949 µM, first compound 0.0316 µM
[24] = second compound 0.0949 µM, first compound 0.1 µM
[25] = second compound 0.0949 µM, first compound 0.316 µM
[26] = second compound 0.0949 µM, first compound 1 µM
[27] = second compound 0.3 µM, first compound 0.0316 µM
[28] = second compound 0.3 µM, first compound 0.1 µM
[29] = second compound 0.3 µM, first compound 0.316 µM
[30] = second compound 0.3 µM, first compound 1 µM
[31] = second compound 0.000949 µM, first compound 0.00316 µM
[32] = second compound 0.000949 µM, first compound 0.01 µM
[33] = second compound 0.003 µM, first compound 0.00316 µM
[34] = second compound 0.003 µM, first compound 0.01 µM
[35] = second compound 0.00949 µM, first compound 0.00316 µM
[36] = second compound 0.00949 µM, first compound 0.01 µM
[37] = second compound 0.03 µM, first compound 0.00316 µM
[38] = second compound 0.03 µM, first compound 0.01 µM
[39] = second compound 0.0949 µM, first compound 0.00316 µM
[40] = second compound 0.0949 µM, first compound 0.01 µM
[41] = second compound 0.3 µM, first compound 0.00316 µM
[42] = second compound 0.3 µM, first compound 0.01 µM
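Note: viability read after seven days of drug exposure.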
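Throughout, for viability, T/C: 100% = DMSO vehicle control viability.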

IC50 [1]: 1750 nM | IC50 [2]: 1400 nM | IC50 [3]: 732 nM | IC50 [4]: 1210 nM | IC50 [5]: < 31.6 nM | IC50 [6]: < 31.6 nM
Compound: CCC(CC)c1cc(NC2CCC(N)C2)n2nccc2n1 (configuration not stated) + CCn1c(-c2cc(N3CCN(C)CC3)cnc2C(C)OC)c2c3cc(ccc31)-c1csc(n1)CC(NC(=O)C1CC1C)C(=O)N1CCCC(N1)C(=O)OCC(C)(C)C2
viability, T/C [7]: 104% | viability, T/C [8]: 84.6% | viability, T/C [9]: 83.7% | viability, T/C [10]: 84.6% | viability, T/C (second compound 0.000949 µM, first compound 3.16 µM): 13.7% | viability, T/C (second compound 0.000949 µM, first compound 10 µM): 12.3% | viability, T/C [11]: 92.8% | viability, T/C [12]: 99.8% | viability, T/C [13]: 85.1% | viability, T/C [14]: 66.4% | viability, T/C (second compound 0.003 µM, first compound 3.16 µM): 9.9% | viability, T/C (second compound 0.003 µM, first compound 10 µM): 10.9% | viability, T/C [15]: 90.3% | viability, T/C [16]: 72.1% | viability, T/C [17]: 69.9% | viability, T/C [18]: 45.8% | viability, T/C (second compound 0.00949 µM, first compound 3.16 µM): 10.7% | viability, T/C (second compound 0.00949 µM, first compound 10 µM): 12.9% | viability, T/C [19]: 51% | viability, T/C [20]: 56.1% | viability, T/C [21]: 64.8% | viability, T/C [22]: 58.7% | viability, T/C (second compound 0.03 µM, first compound 3.16 µM): 7.23% | viability, T/C (second compound 0.03 µM, first compound 10 µM): 15.1% | viability, T/C [23]: 44.6% | viability, T/C [24]: 47.3% | viability, T/C [25]: 43.9% | viability, T/C [26]: 41.6% | viability, T/C (second compound 0.0949 µM, first compound 3.16 µM): 11% | viability, T/C (second compound 0.0949 µM, first compound 10 µM): 15.3% | viability, T/C [27]: 29.7% | viability, T/C [28]: 39.4% | viability, T/C [29]: 45.8% | viability, T/C [30]: 27.8% | viability, T/C (second compound 0.3 µM, first compound 3.16 µM): 6.23% | viability, T/C (second compound 0.3 µM, first compound 10 µM): 15.5%

IC50 (curve of compound): > 1000 nM
Compound: Nc1ccn(C2OC(CO)C(O)C2(F)F)c(=O)n1 (configuration not stated)
viability, T/C (compound 0.00316 µM): 92.8% [middle of 4 runs] | viability, T/C (compound 0.0316 µM): 78.1% [middle of 4 runs] | viability, T/C (compound 0.1 µM): 78.2% [middle of 4 runs] | viability, T/C (compound 0.316 µM): 72% [middle of 4 runs] | viability, T/C (compound 1 µM): 65% [middle of 4 runs]

IC50 [1]: 523 nM | IC50 [2]: 363 nM | IC50 [3]: 147 nM | IC50 [4]: 44.3 nM | IC50 [5]: < 3.16 nM | IC50 [6]: < 3.16 nM
Compound: C=CC(=O)Nc1cc(Nc2nccc(-c3cn(C)c4ccccc34)n2)c(OC)cc1N(C)CCN(C)C + CCn1c(-c2cc(N3CCN(C)CC3)cnc2C(C)OC)c2c3cc(ccc31)-c1csc(n1)CC(NC(=O)C1CC1C)C(=O)N1CCCC(N1)C(=O)OCC(C)(C)C2
viability, T/C [31]: 104% | viability, T/C [32]: 91.1% | viability, T/C [7]: 75.1% | viability, T/C [8]: 82.8% | viability, T/C [9]: 58.1% | viability, T/C [10]: 37.1% | viability, T/C [33]: 103% | viability, T/C [34]: 88.7% | viability, T/C [11]: 68% | viability, T/C [12]: 74% | viability, T/C [13]: 52.3% | viability, T/C [14]: 35.9% | viability, T/C [35]: 91.7% | viability, T/C [36]: 78.3% | viability, T/C [15]: 68.9% | viability, T/C [16]: 54.4% | viability, T/C [17]: 41.5% | viability, T/C [18]: 24.6% | viability, T/C [37]: 58.9% | viability, T/C [38]: 60.1% | viability, T/C [19]: 51.3% | viability, T/C [20]: 42.8% | viability, T/C [21]: 36.9% | viability, T/C [22]: 21.2% | viability, T/C [39]: 46.6% | viability, T/C [40]: 45.7% | viability, T/C [23]: 34.2% | viability, T/C [24]: 36.9% | viability, T/C [25]: 24.4% | viability, T/C [26]: 17.3% | viability, T/C [41]: 33.3% | viability, T/C [42]: 34.9% | viability, T/C [27]: 29.7% | viability, T/C [28]: 30.1% | viability, T/C [29]: 26.9% | viability, T/C [30]: 16.1%

IC50 [1]: > 1000 nM | IC50 [2]: > 1000 nM | IC50 [3]: > 1000 nM | IC50 [4]: > 1000 nM | IC50 [5]: > 1000 nM | IC50 [6]: > 1000 nM
Compound: C=CC(=O)N1CCN(c2nc(OCC3CCCN3C)nc3c(F)c(-c4nc(N)cc(C)c4C(F)(F)F)c(Cl)cc23)C(C)C1 (configuration not stated) + CCn1c(-c2cccnc2C(C)OC)c2c3cc(ccc31)N1CCOC(CC(NC(=O)C(C(C)C)N(C)C(=O)C3(F)CCN(C(=O)C#CC(C)(C)N(C)C)CC3)C(=O)N3CCCC(N3)C(=O)OCC(C)(C)C2)C1
viability, T/C [31]: 113% | viability, T/C [32]: 102% | viability, T/C [7]: 76.5% | viability, T/C [8]: 75.5% | viability, T/C [9]: 95.3% | viability, T/C [10]: 93.1% | viability, T/C [33]: 109% | viability, T/C [34]: 98.4% | viability, T/C [11]: 94% | viability, T/C [12]: 77% | viability, T/C [13]: 99.4% | viability, T/C [14]: 106% | viability, T/C [35]: 104% | viability, T/C [36]: 116% | viability, T/C [15]: 85.1% | viability, T/C [16]: 80% | viability, T/C [17]: 105% | viability, T/C [18]: 95% | viability, T/C [37]: 97.1% | viability, T/C [38]: 104% | viability, T/C [19]: 85.2% | viability, T/C [20]: 75.9% | viability, T/C [21]: 100% | viability, T/C [22]: 108% | viability, T/C [39]: 96.9% | viability, T/C [40]: 101% | viability, T/C [23]: 107% | viability, T/C [24]: 84.4% | viability, T/C [25]: 102% | viability, T/C [26]: 107% | viability, T/C [41]: 84.2% | viability, T/C [42]: 86.4% | viability, T/C [27]: 89.1% | viability, T/C [28]: 88.8% | viability, T/C [29]: 88.7% | viability, T/C [30]: 78%
